The record followed here is ChEMBL document CHEMBL1201862, “PubChem BioAssay data set” (2004).

Experiment [1] addresses T1, Carboxy-terminal domain RNA polymerase II polypeptide A small phosphatase 1 (Homo sapiens, UniProt Q9GZU7).
T1 sequence (Q9GZU7 whole entry): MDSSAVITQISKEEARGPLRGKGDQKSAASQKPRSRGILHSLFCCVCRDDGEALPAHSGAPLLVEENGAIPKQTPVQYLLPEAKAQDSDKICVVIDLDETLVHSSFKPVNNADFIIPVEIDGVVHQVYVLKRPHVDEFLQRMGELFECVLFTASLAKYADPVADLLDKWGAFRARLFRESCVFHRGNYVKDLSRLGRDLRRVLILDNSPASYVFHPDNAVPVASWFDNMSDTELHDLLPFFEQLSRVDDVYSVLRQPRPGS
The experiment is described as follows: CTDSP1 inhibitors, concentration-response, biochemical, absorbance readout, ultra-high-throughput screen actives (AID 540297). It counts as functional.

Experiment [2] has as its target Eukaryotic translation initiation factor 4E (Mus musculus, UniProt P63073). Put plainly: blockers of eIF4G binding by eIF4E – biochemical, TR-FRET, dose response (AID 855).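 Also: potency for disrupting eIF4E binding to eIF4GI seen as loss of FRET.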 In kind it is functional. (In TR-FRET formats the signal depends on donor and acceptor labels being close together.)
Experiment [3] has as its system Vero. The experiment is described as follows: cells. In kind it is functional. The following applies: Chlorocebus sabaeus.
Experiment [4] addresses T2, RNA-binding protein pos-1 (Caenorhabditis elegans, UniProt G5EF15).
T2 sequence (G5EF15 whole entry): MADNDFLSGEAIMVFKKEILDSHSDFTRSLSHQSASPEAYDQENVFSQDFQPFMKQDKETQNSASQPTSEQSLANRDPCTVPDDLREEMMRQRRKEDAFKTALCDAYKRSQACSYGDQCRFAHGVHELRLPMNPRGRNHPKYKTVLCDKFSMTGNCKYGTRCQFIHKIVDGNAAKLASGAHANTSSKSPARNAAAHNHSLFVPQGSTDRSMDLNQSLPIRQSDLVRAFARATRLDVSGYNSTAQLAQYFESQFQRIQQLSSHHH
Put plainly: disruptors of C. elegans POS-1 RNA interaction – biochemical, fluorescence polarization, dose response (AID 1964).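 Also: purified POS-1 fused to maltose binding protein made in E. coli; potency of compounds blocking POS-1 binding to fluorescent RNA.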

Experiment [5] addresses T3, Zinc finger protein mex-5 (Caenorhabditis elegans, UniProt Q9XUB2).
T3 sequence (Q9XUB2 whole entry): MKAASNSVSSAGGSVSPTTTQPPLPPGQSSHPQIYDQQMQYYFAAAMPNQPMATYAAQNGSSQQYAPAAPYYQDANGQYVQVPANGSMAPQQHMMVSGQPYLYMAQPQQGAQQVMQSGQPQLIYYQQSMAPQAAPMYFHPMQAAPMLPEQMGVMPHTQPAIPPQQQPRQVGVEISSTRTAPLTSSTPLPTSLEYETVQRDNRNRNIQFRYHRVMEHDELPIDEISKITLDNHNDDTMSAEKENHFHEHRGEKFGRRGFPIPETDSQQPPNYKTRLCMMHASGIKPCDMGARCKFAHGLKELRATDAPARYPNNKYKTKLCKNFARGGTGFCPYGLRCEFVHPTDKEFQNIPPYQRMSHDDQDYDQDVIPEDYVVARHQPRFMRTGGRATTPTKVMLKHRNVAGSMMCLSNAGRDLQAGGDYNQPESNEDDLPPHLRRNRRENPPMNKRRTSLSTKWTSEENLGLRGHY
The experiment is described as follows: potency of MEX-5 RNA-binding blockers – biochemical, C. elegans, fluorescence polarization, dose response (AID 1960).

Experiment [6] deals with SN12K1. Put plainly: cells. The note with it: Homo sapiens. It counts as functional.
The subject of experiment [7] is P388/ADR. Put plainly: cells. The following applies: Mus musculus. In kind it is functional.
Experiment [8] deals with P388. The experiment is described as follows: cells. In kind it is functional. The following applies: Mus musculus.
Experiment [9] is described as follows: HPDE-C7 pancreatic duct cell viability loss – fluorescence, HTS (AID 430). In kind it is functional, cell-based. The following applies: Homo sapiens.
The nature of experiment [10]: viability loss of HPDE-C7K cells – cell-based, fluorescence, HTS, primary screen (AID 431). In kind it is functional. The note with it: Homo sapiens.
Experiment [11] can be described thus: viability of uninfected HEp-2 cells – cell-based, HTS, cytotoxicity control for RSV inhibitor project, dose response (AID 2410). In kind it is functional. The following applies: human respiratory syncytial virus.
Experiment [12] is described as follows: cells.
Experiment [13] concerns the target T4, DNA repair protein RAD52 homolog (Homo sapiens, UniProt P43351).
T4 sequence (P43351 whole entry): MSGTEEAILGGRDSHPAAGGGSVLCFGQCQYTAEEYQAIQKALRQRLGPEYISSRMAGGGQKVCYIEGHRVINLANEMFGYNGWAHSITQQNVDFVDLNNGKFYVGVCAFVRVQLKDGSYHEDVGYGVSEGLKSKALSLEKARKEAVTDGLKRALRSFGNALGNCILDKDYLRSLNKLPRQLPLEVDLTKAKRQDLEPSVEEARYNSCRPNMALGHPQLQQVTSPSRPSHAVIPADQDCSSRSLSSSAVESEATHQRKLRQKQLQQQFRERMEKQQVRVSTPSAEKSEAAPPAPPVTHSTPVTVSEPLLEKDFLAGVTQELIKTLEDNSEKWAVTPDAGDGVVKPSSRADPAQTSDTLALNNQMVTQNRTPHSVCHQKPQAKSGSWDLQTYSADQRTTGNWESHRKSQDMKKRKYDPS
It counts as functional, biochemical.

Experiment [14] deals with T5, Polyadenylate-binding protein 1 (Homo sapiens, UniProt P11940). The experiment is described as follows: MLLE domain peptide-binding blockers, IC50 – biochemical, fluorescence polarization, FITC-PAM2 peptide, dose response (AID 602259). The note with it: read-out: IC50_Mean. In kind it is functional.
T5 sequence (P11940 whole entry, the tested form may be a part): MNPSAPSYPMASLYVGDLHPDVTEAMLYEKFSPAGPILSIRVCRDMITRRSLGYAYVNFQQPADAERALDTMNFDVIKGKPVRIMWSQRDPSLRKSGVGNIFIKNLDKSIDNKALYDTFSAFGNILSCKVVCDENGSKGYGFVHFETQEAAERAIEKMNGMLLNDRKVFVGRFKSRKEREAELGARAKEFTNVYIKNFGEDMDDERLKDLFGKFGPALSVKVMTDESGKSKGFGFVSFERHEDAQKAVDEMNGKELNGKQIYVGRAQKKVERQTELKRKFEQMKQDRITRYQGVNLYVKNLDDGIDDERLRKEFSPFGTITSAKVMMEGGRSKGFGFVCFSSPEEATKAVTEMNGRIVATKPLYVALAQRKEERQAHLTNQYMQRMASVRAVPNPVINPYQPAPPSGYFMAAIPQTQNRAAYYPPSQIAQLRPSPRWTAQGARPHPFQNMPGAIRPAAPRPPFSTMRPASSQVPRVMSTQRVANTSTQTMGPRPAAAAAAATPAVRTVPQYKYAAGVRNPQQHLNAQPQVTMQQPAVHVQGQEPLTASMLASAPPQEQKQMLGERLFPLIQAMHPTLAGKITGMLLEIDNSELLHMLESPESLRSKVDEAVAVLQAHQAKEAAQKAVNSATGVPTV
Experiment [15] has as its target T5, Polyadenylate-binding protein 1. The experiment is described as follows: MLLE binding blockers, Cy5 peptide tracer – biochemical, fluorescence polarization, Cy5-PAM2 peptide, secondary, miRNA deadenylation inhibitor project, dose response (AID 602260). In kind it is functional. The note with it: read-out: IC50_Mean. (In general: Fluorescence polarisation rises when a labelled molecule tumbles more slowly, as on binding a larger partner.)

The nature of experiment [16]: Luminescence Cell-Based Dose Retest to Confirm Inhibitors of Cancer Stem Cells. [Related pubchem assays (depositor defined):AID2717, AID2721]. In kind it is functional. The following applies: Homo sapiens.
Experiment [17] is described as follows: Trypanosoma cruzi growth suppression in host cells – NIH3T3 host cells, beta-gal luminescence, confirmation (AID 2044).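 Also: intracellular parasites grown in NIH/3T3 mouse fibroblasts as host cells; luminescent beta-galactosidase reporter signal from transgenic T. cruzi replicating inside host cells; inhibitors lower the luminescence signal.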 It counts as functional, cell-based.
Experiment [18] is described as follows: NIH3T3 cell viability loss – ATP luminescence, mouse fibroblasts, counter-screen, dose response (AID 2010).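 Also: cells exposed to compound for about 90 hours before reading.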 In kind it is functional, cell-based. In general terms: The purpose of a counterscreen is to sort out artefacts and off-target activity.
In experiment [19] the target is Cytochrome P450 2D6 (Homo sapiens, UniProt P10635).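 Also: CYP2D6 member of a cytochrome P450 panel assay.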
Cytochrome P450 2D6, sequence (P10635 whole entry): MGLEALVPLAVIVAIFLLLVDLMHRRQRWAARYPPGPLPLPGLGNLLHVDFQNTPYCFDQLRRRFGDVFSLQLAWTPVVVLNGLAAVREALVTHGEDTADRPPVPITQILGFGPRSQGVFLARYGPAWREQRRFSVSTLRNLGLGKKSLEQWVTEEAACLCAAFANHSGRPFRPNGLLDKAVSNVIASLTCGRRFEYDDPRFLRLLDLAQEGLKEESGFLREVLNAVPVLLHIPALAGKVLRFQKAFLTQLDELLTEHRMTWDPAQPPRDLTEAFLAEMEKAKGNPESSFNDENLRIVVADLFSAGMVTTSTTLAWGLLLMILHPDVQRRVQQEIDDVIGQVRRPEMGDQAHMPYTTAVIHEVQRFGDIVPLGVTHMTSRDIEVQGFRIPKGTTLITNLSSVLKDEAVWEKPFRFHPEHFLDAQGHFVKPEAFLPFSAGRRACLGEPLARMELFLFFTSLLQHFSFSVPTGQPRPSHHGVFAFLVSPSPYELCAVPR
A short description of experiment [20]: viability of PTEN-deleted HCT116 cells – cell-based, HCT116 PTEN knockout, dose response (AID 1047).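 Also: HCT116 colon tumor cells with PTEN knocked out; cells exposed to compound for 60 hours before readout; potency for loss of cell viability measured by luminescence.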 In kind it is functional.
Experiment [21] in a line: viability of HCT116 lacking mutant beta-catenin – cell-based, human colon tumor, dose response (AID 1045).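 Also: HCT116 colon tumor cells with beta catenin knocked out; cells exposed to compound for 60 hours.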 In kind it is functional.

Counter-ions that a name gives are not always drawn. Calls of active or inactive are those of the source. Some results are limits rather than exact numbers.

Eukaryotic translation initiation factor 4E, sequence (P63073 whole entry): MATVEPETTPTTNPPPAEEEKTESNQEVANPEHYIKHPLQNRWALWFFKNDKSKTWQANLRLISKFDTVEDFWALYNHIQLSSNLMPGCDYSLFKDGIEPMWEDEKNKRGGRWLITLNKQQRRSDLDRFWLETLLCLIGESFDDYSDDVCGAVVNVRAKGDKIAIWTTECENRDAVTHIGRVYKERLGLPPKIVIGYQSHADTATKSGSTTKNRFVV

For the compound `Cc1ccc(S(=O)(=O)N2CCN(C(=O)/C=C/c3ccco3)CC2)cc1`, in experiment [1], the IC50 was 10.2 µM (active). Consider `CCC(=O)NC(=S)Nc1ccc(NC(=O)c2ccc([N+](=O)[O-])cc2)cc1`, for which, in experiment [2], the IC50 was > 64 µM (inactive). In the case of `CC1CCN(C(=O)CCN2C(=O)/C(=C/c3cccs3)SC2=S)CC1`, the CC50 in [3] is 17.3 µM (active). Besides, the EC50 in experiment [4] and in [5] was > 300 µM (not active) each time. With `Cc1cc(-c2ccc(C(C)C)c(S(=O)(=O)NCc3ccco3)c2)on1`, the CC50 in experiment [3] is 6.78 µM (active). As for `CSc1nc(SC)c2cnn(CC3CO3)c2n1` (stereo not given), the GI50 is 8.2 µM (inactive) in [6], 11.5 µM (inactive) in [7] and 15.6 µM (inactive) in experiment [8]. `Cc1cccc2sc(NC(=O)CN(C)S(=O)(=O)c3ccc(Br)s3)nc12`: the EC50 in experiment [9] and in experiment [10] was 12.2 µM (active) each time. Consider `Cc1nnc(SCC2=C(C(=O)O)N3C(=O)C(NC(=O)Cn4nc(C(F)F)cc4C)C3SC2)s1` (stereo not given), for which, in [1], the IC50 was 7.83 µM (active). Regarding `O=C(CCCOc1ccc(Cl)cc1Cl)Nc1ccccc1C(=O)O`, the CC50 in [11] is 9.45 µM (active). In experiment [12], the IC50 is 5.66 µM (active).

Take `Cc1ccc(-c2ccc(/C=N/O)o2)cc1[N+](=O)[O-]`: the CC50 in experiment [11] is 36.3 µM (active). Moreover, the IC50 in experiment [12] is 33.5 µM (active). Consider `COc1ccccc1N1CCN(S(=O)(=O)Cc2ccccc2Cl)CC1`, for which the IC50 in experiment [2] was > 64 µM (inactive). `CN1CCN(CC(O)(c2ccc(Cl)cc2)c2ccc(Cl)cc2)CC1`: the CC50 in experiment [3] was > 25 µM (active). Regarding `NCCc1cc(O)c(O)cc1O` [OXIDOPAMINE HYDROCHLORIDE], in experiment [13], the AC50 was 4.12 µM (active). In addition, the IC50 in experiment [14] and in [15] was > 66 µM (inactive) in each case. With `O=C(Nc1ccc(CN2CCOCC2)cc1)c1ccc(-c2ccc(Cl)cc2Cl)o1`, in experiment [2], the IC50 was 50 µM (inactive). Besides, in [16], the AC50 was 5.22 µM (active). Consider `CNc1[nH]c(=O)[nH]c(=O)c1N=Nc1cc(Cl)ccc1Cl`, for which the IC50 in experiment [1] is 11.6 µM (active). As for `Cc1c(CCC(=O)O)c(=O)oc2cc(OCc3ccc(Br)cc3)ccc12`, in experiment [1], the IC50 was 7.23 µM (active). As for `O=[N+]([O-])c1ccc(Cl)c(S(=O)(=O)Nc2cccc(-c3ccc(N4CCOCC4)nn3)c2)c1`, the CC50 in [11] is 37.3 µM (active). In addition, the IC50 in [12] was 32.5 µM (active). As to `Cc1cc(N2CCCC2)nc2ccc(NC(S)=NCCCN3CCC(C)CC3)cc12`, the AC50 in experiment [13] is 2.27 µM (active). For the same compound, the CC50 in experiment [3] was > 25 µM (active). For the same compound, the EC50 was 2.03 µM (active) in experiment [17] and 14.2 µM (active) in experiment [18].

For the compound `c1ccc(C(c2ccccc2)[P+](c2ccccc2)(c2ccccc2)c2ccccc2)cc1`, the GI50 is 0.345 µM (active) in experiment [6], 12.4 µM (inactive) in experiment [7] and 0.382 µM (active) in experiment [8]. For the compound `O=C1NC(=S)NC(=O)C1=Cc1ccc(OCC(=O)N2CCCC2)cc1`, the IC50 in experiment [1] was 9 µM (active). For `CCCNC(=O)N1c2ccccc2Sc2ccccc21`, the CC50 in experiment [3] is > 25 µM (active). As to `Cc1c2cc[n+](CCN3CCCCC3)cc2c(C)c2c1[nH]c1ccc(O)cc12`, the GI50 was 1.5 µM (inactive) in experiment [6], 1.37 µM (inactive) in experiment [7] and 0.0111 µM (active) in experiment [8]. For the same compound, the AC50 in [19] is 5.01 µM (inconclusive).

In the case of `CC1(C)Cc2c(C#N)c(N3CCN(C(=O)c4ccco4)CC3)nc(Cc3ccccc3)c2CO1`, the EC50 in experiment [20] was 23.3 µM (active); in experiment [21], 26 µM (active); in experiment [9], 17.2 µM (active); in experiment [10], 11.8 µM (active). In the case of `CCOC(=O)C(C)Sc1ccc2nnc(-c3ccc(F)cc3)n2n1` (stereo not given), the IC50 in experiment [2] is > 64 µM (inactive).

A word on the CC50: it is the concentration that lowers cell viability or growth by half. One may read the EC50 as the concentration needed to bring the measured effect to its halfway point. The term GI50 denotes the concentration that inhibits growth by half. In general, AC50 refers to the midpoint of the concentration-response curve, whichever way the signal moves.
